Laboratory results from ChEMBL document CHEMBL2074483, “Multidrug-resistance protein 5 is a multispecific organic anion transporter able to transport nucleotide analogs” (Proc Natl Acad Sci U S A, 2000).

Tests used:
[1] = biological target: T1, ATP-binding cassette sub-family C member 5 (Homo sapiens, UniProt O15440); test: TP_TRANSPORTER: efflux in MRP5-expressing MDCKII cells; assay type: functional, cell-based; details: dog, mdck-ii
[2] = biological target: T1, ATP-binding cassette sub-family C member 5; test: TP_TRANSPORTER: inhibition of PMEA efflux (PMEA: 1 uM) in MRP5-expressing MDCKII cells; assay type: functional, cell-based, MDCK-II

T1 sequence (O15440 whole entry): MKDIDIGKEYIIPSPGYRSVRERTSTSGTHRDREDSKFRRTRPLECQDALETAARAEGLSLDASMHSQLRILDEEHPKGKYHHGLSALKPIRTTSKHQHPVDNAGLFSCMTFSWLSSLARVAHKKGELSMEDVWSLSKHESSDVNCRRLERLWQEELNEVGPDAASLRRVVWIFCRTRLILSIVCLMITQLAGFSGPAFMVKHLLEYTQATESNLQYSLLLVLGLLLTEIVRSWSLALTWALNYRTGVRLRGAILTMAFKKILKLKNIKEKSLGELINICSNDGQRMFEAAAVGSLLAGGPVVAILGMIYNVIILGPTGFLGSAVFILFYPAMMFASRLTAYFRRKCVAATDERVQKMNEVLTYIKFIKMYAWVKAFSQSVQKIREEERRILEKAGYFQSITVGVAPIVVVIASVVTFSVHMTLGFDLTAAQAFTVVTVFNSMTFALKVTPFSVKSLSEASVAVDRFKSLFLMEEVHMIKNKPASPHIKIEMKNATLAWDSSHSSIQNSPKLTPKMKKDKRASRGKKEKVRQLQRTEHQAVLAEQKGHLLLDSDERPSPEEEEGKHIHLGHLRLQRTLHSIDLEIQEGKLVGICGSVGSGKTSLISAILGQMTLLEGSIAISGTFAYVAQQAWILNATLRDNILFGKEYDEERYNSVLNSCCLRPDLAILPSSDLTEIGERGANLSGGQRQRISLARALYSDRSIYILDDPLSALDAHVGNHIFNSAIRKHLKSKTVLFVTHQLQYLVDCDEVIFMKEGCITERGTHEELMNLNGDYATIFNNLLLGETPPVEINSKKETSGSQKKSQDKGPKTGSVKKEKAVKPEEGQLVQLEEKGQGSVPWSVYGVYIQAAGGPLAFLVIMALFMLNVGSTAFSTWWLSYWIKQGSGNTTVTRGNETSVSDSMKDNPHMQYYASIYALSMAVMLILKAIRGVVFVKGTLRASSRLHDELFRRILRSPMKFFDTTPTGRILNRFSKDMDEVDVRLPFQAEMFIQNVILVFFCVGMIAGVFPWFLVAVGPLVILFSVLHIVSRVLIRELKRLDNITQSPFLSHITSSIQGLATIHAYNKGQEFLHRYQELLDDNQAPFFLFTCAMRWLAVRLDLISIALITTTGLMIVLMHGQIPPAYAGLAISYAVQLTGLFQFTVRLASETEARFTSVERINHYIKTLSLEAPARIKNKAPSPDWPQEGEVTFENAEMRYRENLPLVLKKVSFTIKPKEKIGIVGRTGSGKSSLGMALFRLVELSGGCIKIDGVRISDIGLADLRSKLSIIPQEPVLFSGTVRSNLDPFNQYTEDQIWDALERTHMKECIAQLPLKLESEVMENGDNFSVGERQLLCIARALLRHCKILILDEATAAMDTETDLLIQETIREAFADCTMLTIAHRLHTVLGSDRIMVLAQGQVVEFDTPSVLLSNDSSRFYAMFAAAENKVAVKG

| IC50 [2] [µM] | SMILES | Activity [1] |
| --- | --- | --- |
|  | Nc1ncnc2c1ncn2CCOCP(=O)(O)O [ADEFOVIR] | substrate [+] |
|  | Sc1ncnc2nc[nH]c12 [MERCAPTOPURINE ANHYDROUS] | substrate [+] |
| < 100 | O=C1C(CC[S+]([O-])c2ccccc2)C(=O)N(c2ccccc2)N1c1ccccc1 (stereo not drawn) [SULFINPYRAZONE] |  |
